Key:
Conditions in all cases: 10 μM free compound
MAP3K2 = target: T1, MAP3K2 (Homo sapiens, UniProt Q9Y2U5); experiment: Kinobeads competition binding, HeLa Placenta lysate mix; design: endogenous in cells
T1 sequence (Q9Y2U5 1-619): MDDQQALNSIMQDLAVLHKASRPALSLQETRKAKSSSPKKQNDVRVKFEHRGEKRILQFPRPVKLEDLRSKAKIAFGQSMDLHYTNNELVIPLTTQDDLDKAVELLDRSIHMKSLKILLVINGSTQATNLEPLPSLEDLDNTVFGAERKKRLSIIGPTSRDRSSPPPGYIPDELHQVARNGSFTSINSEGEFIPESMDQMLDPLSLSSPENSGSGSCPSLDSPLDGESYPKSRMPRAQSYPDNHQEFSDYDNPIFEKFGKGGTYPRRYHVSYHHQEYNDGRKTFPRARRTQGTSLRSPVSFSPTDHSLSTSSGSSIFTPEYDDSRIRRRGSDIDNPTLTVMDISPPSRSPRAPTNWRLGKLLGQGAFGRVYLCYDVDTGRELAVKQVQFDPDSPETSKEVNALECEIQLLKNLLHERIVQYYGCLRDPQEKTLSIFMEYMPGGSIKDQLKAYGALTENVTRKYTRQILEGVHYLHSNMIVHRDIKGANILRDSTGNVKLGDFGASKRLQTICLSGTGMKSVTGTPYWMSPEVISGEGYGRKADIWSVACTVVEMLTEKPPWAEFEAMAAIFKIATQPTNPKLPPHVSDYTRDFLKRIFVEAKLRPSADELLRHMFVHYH
Procedure: (§1) To one aliquot of cell lysate 10 μM of the free compound (FIG. 3, CZC31326) was added and allowed to bind to proteins in the lysate. Then the affinity matrix with the immobilized compound was added to capture proteins that were not interacting with the previously added free compound. Beads were separated from the lysate and bead bound proteins were eluted in SDS sample buffer and subsequently separated by SDS-Polyacrylamide gel electrophoresis (FIG. 10). Suitable gel bands were cut out and subjected to in-gel proteolytic digestion with trypsin. The second lysate aliquot was processed identically, however no free compound was added (DMSO solvent control). Peptides originating from samples 1 and 2 were labeled with iTRAQ reagents (iTRAQ 114 and iTRAQ 117) and the combined samples were analyzed with a nano-flow liquid chromatography system coupled online to a tandem mass spectrometer (LC-MS/MS) experiment followed by iTRAQ reporter ion quantification in the MS/MS spectra as described in Example 2.

CDC2 = CDC2 (Homo sapiens, UniProt P06493); experiment: as above; design: endogenous in cells
Chain of CDC2 (P06493 whole entry): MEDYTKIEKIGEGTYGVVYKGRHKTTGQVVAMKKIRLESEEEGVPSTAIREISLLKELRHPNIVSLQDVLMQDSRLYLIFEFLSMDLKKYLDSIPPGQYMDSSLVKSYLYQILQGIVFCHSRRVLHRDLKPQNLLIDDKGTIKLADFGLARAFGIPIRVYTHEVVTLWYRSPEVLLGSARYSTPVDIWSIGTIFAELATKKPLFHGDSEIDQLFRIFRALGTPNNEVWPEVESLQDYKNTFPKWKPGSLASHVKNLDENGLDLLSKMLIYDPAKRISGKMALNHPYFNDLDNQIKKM
Procedure: as §1

JNK2 = JNK2 (Homo sapiens, UniProt P45984); experiment: as above; design: endogenous in cells
Chain of JNK2 (P45984 whole entry): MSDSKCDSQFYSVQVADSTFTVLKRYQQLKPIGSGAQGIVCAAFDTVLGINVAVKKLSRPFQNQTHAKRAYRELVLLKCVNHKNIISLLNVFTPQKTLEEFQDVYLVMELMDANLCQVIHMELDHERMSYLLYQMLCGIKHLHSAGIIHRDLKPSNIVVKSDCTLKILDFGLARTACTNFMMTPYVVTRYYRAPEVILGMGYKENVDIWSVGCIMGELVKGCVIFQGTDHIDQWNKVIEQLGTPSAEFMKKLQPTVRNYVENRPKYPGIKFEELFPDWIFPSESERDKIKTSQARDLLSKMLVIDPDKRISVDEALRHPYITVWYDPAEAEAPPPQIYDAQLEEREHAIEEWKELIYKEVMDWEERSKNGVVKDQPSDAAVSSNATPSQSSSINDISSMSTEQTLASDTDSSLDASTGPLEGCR
Procedure: as §1

MAP2K1 = MAP2K1 (Homo sapiens, UniProt Q02750); experiment: as above; design: endogenous in cells
Chain of MAP2K1 (Q02750 whole entry): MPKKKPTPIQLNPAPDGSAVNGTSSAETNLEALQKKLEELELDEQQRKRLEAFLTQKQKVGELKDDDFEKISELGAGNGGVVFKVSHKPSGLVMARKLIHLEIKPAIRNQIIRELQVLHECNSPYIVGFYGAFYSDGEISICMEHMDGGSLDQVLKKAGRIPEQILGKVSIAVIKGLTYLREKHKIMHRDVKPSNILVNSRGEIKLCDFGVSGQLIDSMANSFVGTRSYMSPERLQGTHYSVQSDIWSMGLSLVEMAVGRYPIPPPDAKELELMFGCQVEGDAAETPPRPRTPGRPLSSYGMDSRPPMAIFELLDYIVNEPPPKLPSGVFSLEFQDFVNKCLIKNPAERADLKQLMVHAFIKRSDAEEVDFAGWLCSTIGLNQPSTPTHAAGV
Procedure: as §1

KHS1 = target: T2, KHS1 (Homo sapiens, UniProt Q9Y4K4); experiment: Kinobeads competition binding, HL60 cell lysate
T2 construct: Identified kinases with CZC31326 from HL60 lysate; endogenous in cells; host or cells: HL60
T2 sequence (Q9Y4K4 whole entry): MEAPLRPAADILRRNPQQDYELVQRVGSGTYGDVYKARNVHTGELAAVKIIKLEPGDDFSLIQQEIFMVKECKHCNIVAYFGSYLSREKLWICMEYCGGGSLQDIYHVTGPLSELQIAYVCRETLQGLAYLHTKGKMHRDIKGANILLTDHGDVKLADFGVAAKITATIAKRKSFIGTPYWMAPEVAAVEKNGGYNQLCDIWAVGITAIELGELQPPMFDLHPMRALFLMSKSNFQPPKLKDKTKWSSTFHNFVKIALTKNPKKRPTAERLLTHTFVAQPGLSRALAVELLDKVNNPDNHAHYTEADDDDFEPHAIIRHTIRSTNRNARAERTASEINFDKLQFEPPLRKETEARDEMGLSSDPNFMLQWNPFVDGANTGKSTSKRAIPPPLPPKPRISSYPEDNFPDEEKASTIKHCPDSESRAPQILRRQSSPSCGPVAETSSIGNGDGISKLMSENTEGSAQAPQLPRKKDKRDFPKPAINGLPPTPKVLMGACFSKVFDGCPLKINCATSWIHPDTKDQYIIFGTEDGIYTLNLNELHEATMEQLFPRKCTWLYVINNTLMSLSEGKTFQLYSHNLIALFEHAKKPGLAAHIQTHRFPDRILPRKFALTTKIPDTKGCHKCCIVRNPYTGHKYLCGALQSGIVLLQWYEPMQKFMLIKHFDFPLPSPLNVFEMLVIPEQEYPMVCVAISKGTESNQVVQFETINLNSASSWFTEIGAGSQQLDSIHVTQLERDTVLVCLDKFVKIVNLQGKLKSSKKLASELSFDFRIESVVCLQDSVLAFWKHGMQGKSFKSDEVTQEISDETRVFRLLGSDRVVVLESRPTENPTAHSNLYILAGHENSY
Procedure: (§2) To one aliquot of cell lysate 10 μM of the free compound (FIG. 3, CZC31326) was added and allowed to bind to proteins in the lysate. Then the affinity matrix with the immobilized compound (Example 1) was added to capture proteins that were not interacting with the previously added free compound. Beads were separated from the lysate and bead bound proteins were eluted in SDS sample buffer and subsequently separated by SDS-Polyacrylamide gel electrophoresis (FIG. 4). Suitable gel bands were cut out and subjected to in-gel proteolytic digestion with trypsin. The second lysate aliquot was processed identically, however no free compound was added (DMSO solvent control). Peptides originating from samples 1 and 2 were labeled with iTRAQ reagents (iTRAQ 114 and iTRAQ 117) and the combined samples were analyzed with a nano-flow liquid chromatography system coupled online to a tandem mass spectrometer (LC-MS/MS) experiment followed by iTRAQ reporter ion quantification in the MS/MS spectra (Ross et al., 2004. Mol. Cell. Proteomics 3(12):1154-1169). Further experimental protocols can be found in WO2006/134056 and a previous publication (Bantscheff et al., 2007. Nature Biotechnology 25, 1035-1044). Sepharose-beads with the immobilized compound (100 μl beads per pull-down experiment) were equilibrated in lysis buffer and incubated with a cell lysate sample containing 50 mg of protein on an end-over-end shaker (Roto Shake Genie, Scientific Industries Inc.) for 2 hours at 4° C. Beads were collected, transferred to Mobicol-columns (MoBiTech 10055) and washed with 10 ml lysis buffer containing 0.4% NP40 detergent, followed by 5 ml lysis buffer containing 0.2% detergent. To elute bound proteins, 60 μl 2×SDS sample buffer was added to the column. The column was incubated for 30 minutes at 50° C. and the eluate was transferred to a siliconized microfuge tube by centrifugation. Proteins were then alkylated with 108 mM iodoacetamid. Proteins were then separated by SDS-Polyacrylamide electrophoresis (SDS-PAGE). The peptide extracts of samples treated with 10 μM of free compound (CZC31326) and the solvent control (0.5% DMSO) were treated with different variants of the isobaric tagging reagent (iTRAQ Reagents Multiplex Kit, part number 4352135, Applied Biosystems, Foster City, Calif., USA). The iTRAQ reagents are a set of multiplexed, amine-specific, stable isotope reagents that can label peptides on amino groups in up to four different biological samples enabling simultaneous identification and quantitation of peptides. The iTRAQ reagents were used according to instructions provided by the manufacturer. The samples were resuspended in 10 μl 50 mM TEAB solution, pH 8.5 and 10 μl ethanol were added. The iTRAQ reagent was dissolved in 120 μl ethanol and 10 μl of reagent solution were added to the sample. The labeling reaction was performed at room temperature for one hour on a horizontal shaker and stopped by adding 5 μl of 100 mM TEAB and 100 mM glycine in water. The two labeled sampled were then combined, dried in a vacuum centrifuge and resuspended in 10 μl of 0.1% formic acid in water. Relative protein quantitation was performed using peak areas of iTRAQ reporter ion signals essentially as described in an earlier publication (Bantscheff et al., 2007. Nature Biotechnology 25, 1035-1044).

LCK = target: T3, LCK (Homo sapiens, UniProt P06239); experiment: Kinobeads competition binding, HL60 cell lysate
T3 construct: Identified kinases with CZC31326 from HL60 lysate; endogenous in cells; host or cells: HL60
T3 sequence (P06239 whole entry): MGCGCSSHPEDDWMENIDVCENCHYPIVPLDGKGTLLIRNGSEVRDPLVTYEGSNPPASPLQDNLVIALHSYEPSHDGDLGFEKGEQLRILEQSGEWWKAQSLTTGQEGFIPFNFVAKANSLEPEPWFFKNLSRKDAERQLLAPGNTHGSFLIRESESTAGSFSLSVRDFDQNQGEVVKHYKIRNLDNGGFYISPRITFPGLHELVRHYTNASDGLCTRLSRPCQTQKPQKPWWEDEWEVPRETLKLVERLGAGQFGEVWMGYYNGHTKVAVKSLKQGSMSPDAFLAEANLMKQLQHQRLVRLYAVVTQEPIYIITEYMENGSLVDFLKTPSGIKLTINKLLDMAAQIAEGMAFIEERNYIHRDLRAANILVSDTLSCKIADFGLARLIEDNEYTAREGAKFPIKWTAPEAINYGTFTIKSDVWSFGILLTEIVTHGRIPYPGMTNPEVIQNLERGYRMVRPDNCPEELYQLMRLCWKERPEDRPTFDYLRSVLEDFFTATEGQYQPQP
Procedure: as §2

Question: For CS(=O)(=O)Nc1ccccc1Nc1nc(Nc2cccc(OCCN)c2)ncc1Cl [CZC31326, N-(2-(2-(3-(2-aminoethoxy)phenylamino)-5-chloropyrimidin-4-ylamino)phenyl)methanesulfonamide], which inhibition at 10 µM (MAP3K2) is on record?
Answer: The inhibition at 10 µM was 93.9%.

Question: What about the inhibition at 10 µM (CDC2) of the same compound?
Answer: Its inhibition at 10 µM is 93.4%.

Question: What about the Competition % (JNK2) of the same compound?
Answer: Its Competition % is 83.1%.

Question: What about the inhibition at 10 µM (MAP2K1) of the same compound?
Answer: The inhibition at 10 µM was 83.7%.

Question: And the inhibition at 10 µM (KHS1)?
Answer: The inhibition at 10 µM was 93.2%.

Question: And the inhibition at 10 µM (LCK)?
Answer: The inhibition at 10 µM was 86.8%.
